5 molecules from publication PMC9090415, “Discovery of small molecule inhibitors of Plasmodium falciparum apicoplast DNA polymerase” (Journal of Enzyme Inhibition and Medicinal Chemistry, 2022) can be followed below.

For this experiment, the target named is P. falciparum apicoplast DNA polymerase (Pf-apPOL) (Plasmodium falciparum, UniProt Q8ILY1). In words: Fluorescence-based high-throughput DNA polymerase assay (molecular beacon), primary screen and dose-response. Type of experiment: biochemical. To be noted: for DNA Pol: 90 min, 10 µM; for pIC50: supplemental file 2, sheet IC50 nontoxic compounds, Pf-apPOL. On the procedure:
The HT assay employs a molecular beacon, a stem-loop DNA template with a Cy3 dye and the Black Hole Quencher on the 3′ and 5′ ends of the DNA, respectively. Pf-apPOL concentration is based on a calculated absorptivity of ε280 = 56750 M^−1 cm^−1. Reactions were carried out at 25 °C, using Corning 3575 […] (well-volume, 20 µL). Assays testing for compound inhibition composed of reaction buffer (pH 7.9 in 50 mM potassium acetate, 20 mM Tris-acetate and 10 mM magnesium acetate), Pf-apPOL (20 nM), DNA substrate (20 nM), dNTPs (6 µM), and compound (10 µM in DMSO). The DNA and nucleotide substrates (dNTPs) were at concentrations of 20 nM and 6 µM, respectively, in the assay. Pf-apPOL was incubated in the reaction buffer with dNTPs and the compound of interest (10 µM, in the assay) at 25 °C for 10 min. The DNA substrate was then added and the reaction was allowed to proceed for 90 min at 25 °C.
Each assay plate contained 16 negative controls (no Pf-apPOL, DMSO present) and 16 positive controls (Pf-apPOL present, no DMSO). The fluorescence of each well was determined using a BioTek Synergy Neo fluorescence plate reader using excitation and emission wavelengths of 555 and 570 nm, respectively.
In the above, Min is the average of fluorescence emission of the negative controls (substrate only), Max the average fluorescence emission from the positive controls (enzyme + substrate), and Test the emission from the assays in the presence of compounds (enzyme + compound + substrates). […] […] The IC50 of each compound was determined using Equation (2): (2) IC50= Vmax/(1+ (I/IC50)^n)
In the above, n measures cooperativity, with n > 1 indicating synergistic binding of more than a single molecule of the compound.
To identify apPOL inhibitors we utilised our previously developed high-throughput DNA polymerase assay. The HT assay is based on a molecular beacon DNA template that forms a stem-loop with a Cy3 dye and the Black Hole Quencher on the 3′ and 5′ ends of the DNA, respectively. DNA polymerase activity extends an annealed primer through the stem region, displacing the fluorophore from the quencher, thereby increasing its fluorescence (Figure 1(A)). The assay accurately recapitulates the kinetic behaviour of apPOL, as measured through more conventional low-throughput gel-based assays. The Z′ factor for the assay described here was 0.9 across all plates (data not shown).
Figure 1. High-throughput screening. (A) The fluorescent-based DNA polymerase assay used to screen the compound libraries. The DNA template strand is a hairpin loop with a primer annealed to the loop. The 3’ end of the primer is 11 bases away from the 6 bp duplex. Strand displacement activity of the DNA polymerase separates the Cy3 dye from the Black hole quencher leading to an increase in fluorescent signal. (B) The high-throughput assay workflow. The DNA polymerase is incubated with […] compound for 10 min prior to addition of the hairpin substrate. The reaction is quenched at 3 different time points and the fluorescent signal is measured and % inhibition is determined using the provided equation.

Where [1] appears, read: 'DNA Pol' of the 186 hits list (screen value).
[2] abbreviates: primary screen value, "DNA Pol".

Structures are written as SMILES. pIC50: −log10 of the molar value.

Usually pIC50 stands for the negative decadic logarithm of the IC50, by convention in mol/L.

Chain of P. falciparum apicoplast DNA polymerase (Pf-apPOL) (Q8ILY1 entry or part of it): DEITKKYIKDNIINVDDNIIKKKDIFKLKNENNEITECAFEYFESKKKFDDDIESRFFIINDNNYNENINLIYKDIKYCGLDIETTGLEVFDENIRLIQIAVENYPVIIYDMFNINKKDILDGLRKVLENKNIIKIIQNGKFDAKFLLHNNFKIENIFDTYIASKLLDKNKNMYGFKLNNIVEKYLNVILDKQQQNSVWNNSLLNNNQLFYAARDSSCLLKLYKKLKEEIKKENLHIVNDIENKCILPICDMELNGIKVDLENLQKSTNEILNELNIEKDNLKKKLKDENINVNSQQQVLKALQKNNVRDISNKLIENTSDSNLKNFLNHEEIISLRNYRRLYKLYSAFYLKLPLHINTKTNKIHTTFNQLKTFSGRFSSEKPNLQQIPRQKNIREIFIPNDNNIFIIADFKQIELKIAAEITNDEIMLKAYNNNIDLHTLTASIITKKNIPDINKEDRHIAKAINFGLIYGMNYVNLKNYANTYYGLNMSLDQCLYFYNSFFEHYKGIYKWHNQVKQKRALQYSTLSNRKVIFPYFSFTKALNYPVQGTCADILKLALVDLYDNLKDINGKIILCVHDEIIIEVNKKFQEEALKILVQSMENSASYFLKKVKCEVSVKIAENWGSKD

Turning to `O=c1nc(/C=C/c2ccc(Br)cc2)oc2ccccc12` [KU0052629], the “DNA Pol” value is listed as 39 under setting [1] and 39 under setting [2]. The “% inhibition Apo pol 10'” value is, setting by setting: (DRC-1, conc 2.5) -0.8795%; (DRC-1, conc 5) 1.877%; (DRC-1, conc 10) 5.765%; (DRC-1, conc 20) 17.2321%; (DRC-1, conc 40) 88.0772%; (DRC-1, conc 80) 96.3156%. The “% inhibition Apol 90'” value (DRC-1, conc 2.5) is recorded as -3.77%; the “% inhibition Apol 90'” value (DRC-1, conc 5) is given as -1.711%; the “% inhibition Apol 90'” value (DRC-1, conc 10) was 2.797%; the “% inhibition Apol 90'” value (DRC-1, conc 20) is given as 11.2319%; the “% inhibition Apol 90'” value (DRC-1, conc 40) came to 85.0713%; the “% inhibition Apol 90'” value (DRC-1, conc 80) was determined as 92.172%. The “% inhibition apPOL 180'” value is given as -7.96% (DRC-1, conc 2.5); -5.094% (DRC-1, conc 5); -1.853% (DRC-1, conc 10); 4.7876% (DRC-1, conc 20); 80.0065% (DRC-1, conc 40); 94.1472% (DRC-1, conc 80). In addition, the “% inhibition apPOL 180'” value was 6% (DRC-2, conc 2.5); -4% (DRC-2, conc 5); 2.72% (DRC-2, conc 10); 37% (DRC-2, conc 20); 79% (DRC-2, conc 40); 79% (DRC-2, conc 80). The “% inhibition apPOL 180'” value reads like this: (DRC-2, concentration 2.5) 6%; (DRC-2, concentration 40) 79%; (DRC-2, concentration 80) 79%. Also, the “% inhibition Apo pol 5'” value is, setting by setting: (DRC-2, conc 2.5) 6%; (DRC-2, conc 5) -1.24%; (DRC-2, conc 10) 6%; (DRC-2, conc 20) 35%; (DRC-2, conc 40) 60%; (DRC-2, conc 80) 61%. Further, the “% inhibition Apo pol 5'” value stood at 6% (DRC-2, concentration 2.5) and 6% (DRC-2, concentration 10). In addition, the “% inhibition Apol 40'” value is 8% (DRC-2, conc 2.5); -2.13% (DRC-2, conc 5); 5.6% (DRC-2, conc 10); 48% (DRC-2, conc 20); 77% (DRC-2, conc 40); 75% (DRC-2, conc 80). Besides, the “% inhibition Apol 40'” value (DRC-2, concentration 2.5) was determined as 8%. Also, the “% inhibition ApPOL 90'” value is recorded as 8% (DRC-2, conc 2.5); -2% (DRC-2, conc 5); 5% (DRC-2, conc 10); 45% (DRC-2, conc 20); 79% (DRC-2, conc 40); 79% (DRC-2, conc 80). The “% inhibition ApPOL 90'” value by setting is: (DRC-2, concentration 2.5) 8%; (DRC-2, concentration 40) 79%; (DRC-2, concentration 80) 79%.

Regarding `Cc1ccc(NC(=O)C2CCN(C(=O)c3cc4ccsc4[nH]3)CC2)c(Br)c1` [Molecule 14], the pIC50 is 5.18.

Take `N#CC(C#N)=C1SCN(c2cccc(Cl)c2)CS1` [Molecule 29, N#CC(=C1SCN(CS1)c1cccc(c1)Cl)C#N]: the “DNA Pol” value by setting is: under setting [1], 95; under setting [2], 95. In addition, the “% inhibition Apo pol 10'” value (DRC-1, conc 2.5) stood at 21.8228%; the “% inhibition Apo pol 10'” value (DRC-1, conc 5) was found to be 35.73%; the “% inhibition Apo pol 10'” value (DRC-1, conc 10) was determined as 36.478%; the “% inhibition Apo pol 10'” value (DRC-1, conc 20) is given as 90.158%; the “% inhibition Apo pol 10'” value (DRC-1, conc 40) came to 91.3949%; the “% inhibition Apo pol 10'” value (DRC-1, conc 80) is 94.8229%. In addition, the “% inhibition Apol 90'” value by setting is: (DRC-1, conc 2.5) 12.5059%; (DRC-1, conc 5) 27.1845%; (DRC-1, conc 10) 28.2977%; (DRC-1, conc 20) 85.5173%; (DRC-1, conc 40) 87.9667%; (DRC-1, conc 80) 95.5447%. Besides, the “% inhibition apPOL 180'” value by setting is: (DRC-1, conc 2.5) 2.521%; (DRC-1, conc 5) 13.8215%; (DRC-1, conc 10) 15.4746%; (DRC-1, conc 20) 81.5285%; (DRC-1, conc 40) 85.2905%; (DRC-1, conc 80) 94.962%. Further, the “% inhibition apPOL 180'” value runs as follows: (DRC-2, conc 2.5) 10%; (DRC-2, conc 5) 31%; (DRC-2, conc 10) 48%; (DRC-2, conc 20) 62%; (DRC-2, conc 40) 73%; (DRC-2, conc 80) 81%. Under “DRC-2, concentration 40”, the “% inhibition apPOL 180'” value was 73%. For the same molecule, the “% inhibition Apo pol 5'” value (DRC-2, conc 2.5) was 14%; the “% inhibition Apo pol 5'” value (DRC-2, conc 5) was 34%; the “% inhibition Apo pol 5'” value (DRC-2, conc 10) was 45%; the “% inhibition Apo pol 5'” value (DRC-2, conc 20) is recorded as 55%; the “% inhibition Apo pol 5'” value (DRC-2, conc 40) was determined as 60%; the “% inhibition Apo pol 5'” value (DRC-2, conc 80) is on record as 60%. Also, the “% inhibition Apo pol 5'” value (DRC-2, concentration 40) came to 60% and the “% inhibition Apo pol 5'” value (DRC-2, concentration 80) was 60%. The “% inhibition Apol 40'” value was 20% (DRC-2, conc 2.5); 42% (DRC-2, conc 5); 56% (DRC-2, conc 10); 65% (DRC-2, conc 20); 73% (DRC-2, conc 40); 76% (DRC-2, conc 80). The “% inhibition Apol 40'” value is, setting by setting: (DRC-2, concentration 10) 56%; (DRC-2, concentration 40) 73%. Further, the “% inhibition ApPOL 90'” value (DRC-2, conc 2.5) turned out to be 17%; the “% inhibition ApPOL 90'” value (DRC-2, conc 5) stood at 41%; the “% inhibition ApPOL 90'” value (DRC-2, conc 10) is given as 56%; the “% inhibition ApPOL 90'” value (DRC-2, conc 20) was determined as 66%; the “% inhibition ApPOL 90'” value (DRC-2, conc 40) is 75%; the “% inhibition ApPOL 90'” value (DRC-2, conc 80) is listed as 79%. For the same molecule, the “% inhibition ApPOL 90'” value (DRC-2, concentration 10) was 56%.

With `CCSc1nnc(NC(=O)Cc2csc(NC(=O)c3cnccn3)n2)s1` [Molecule 79], the pIC50 is 4.33.

As to `O=C(O)c1cccc(N2N=C(C(F)(F)F)/C(=C/c3ccc(-c4ccccc4[N+](=O)[O-])o3)C2=O)c1` [Molecule 100], the pIC50 was 5.02.
